Values of other authors as cited in US12533314B2, “Low sodium oxybate once nightly composition” (Tris Pharma, Inc., priority 2023, dated 2026).

Conditions: in vivo

## O=C(O)CCCO [Oxybate, Gamma-hydroxybutyrate]
  plasma half-life: 30 to 45 min
